Measured values from US6063814A, “Phorbol esters as anti-neoplastic and white blood cell elevating agents” (priority 1997, dated 2000).

What was measured:
mouse skin = details: cited from earlier work
[1] = system: skin and the mucous membrane; details: cited from earlier work
[2] = system: S180 (Sarcoma 180) tumor cells; experiment: Tumor growth inhibition in mice injected with S180 (Sarcoma 180) tumor cells; assay type: in vivo, Kwen-Ming mice
Experimental: Effect of TPA in Mice Injected With S180 (Sarcoma 180) Tumor Cells:
Eight groups of Kwen-Ming mice containing 7 mice per group were used in the following experiment. Two groups were untreated and six groups received the drug.
Each Kwen-Ming mouse was injected with 5×10^6 S180 cells at the under-arm position. After 24 or 72 h, the animals were given TPA i.p. or locally at the tumor site. The injected doses of TPA were 50, 100 and 200 μg/kg/d for 7 days. The animals were sacrificed 24 hrs after the final TPA treatment and the tumors were weighed to calculate the extent of the tumor growth inhibition.

B16 tumor cells = experiment: Tumor growth inhibition in mice injected with B16 tumor cells; assay type: in vivo, C57 mice; details: statistically different from control
Experimental: Effect of TPA in Mice Injected with B16 Tumor Cells:
Four groups of C57 mice were used in the experiment. Each group contained 7 mice and one group was untreated. Each C57 mouse was injected with 0.2 ml of supernatant of a 1:6 w/v homogenate of B16 cells at the under-arm position. On the third day, each treatment group was given TPA i.p. at 50, 100 or 200 μg/kg/d for 8 days.

[3] = system: leukemia (bone marrow myeloblast and promyelocyte); experiment: Clinical treatment of leukemia patients with TPA; assay type: in vivo, humans
cell cultures = details: Chemsyn product brochure; cited from earlier work
[4] = Chemical stability of TPA solutions on storage; assay type: physicochemical; details: dark
Experimental: 0.10, 0.125, 0.25 or 0.5 mg of TPA was dissolved in 1.3 ml 95-100% U.S.P. ethanol and 0.7 ml saline. Under sterile conditions, TPA was first dissolved in ethanol, then saline was added, mixed vigorously, bacteriologically filtered, and stored in sealed sterile amber vials containing either 0.10 mg/2 ml, 0.125 ml/2 ml or 0.25 mg/2 ml, 0.5 mg/2 ml.
0.10, 0.125, 0.25 or 0.5 mg of TPA was dissolved in 0.2 ml of ethanol, 1.2 ml of isopropanol and 0.6 ml saline. Under sterile conditions, TPA was first dissolved in the ethanol and isopropanol, then saline was added, and the mixture was vigorously mixed, bacteriologically filtered and stored in sealed sterile amber vials containing either 0.10 mg/2 ml, 0.125 ml/2 ml or 0.25 mg/2 ml or 0.5 mg/2 ml.

HL-60 cells = experiment: Effect of TPA in a human promyelocytic leukemia cell line (HL-60); assay type: cell-based; details: 10, 20 or 100 ng/ml
Experimental: 1. Effect of TPA in a Human Promyelocytic Leukemia Cell Line (HL-60):
HL-60 cells at 2×10^6 cells/ml were treated with TPA. The final concentrations of TPA were 10, 20, or 100 ng/ml. The ethanol content was less than 0.01%.

[5] = system: human leukemia cell line HL-60; details: cited from earlier work
[6] = subject 8, AML-M3, retinoic acid failed
[7] = subject 9, secondary aplastic anemia, TPA 0.25 mg×2

In the case of `CCCCCCCCCCCCCC(=O)O[C@@H]1[C@@H](C)[C@@]2(O)[C@@H](C=C(CO)C[C@]3(O)C(=O)C(C)=C[C@@H]23)[C@@H]2C(C)(C)[C@]12OC(C)=O` [TPA, Phorbol 12-Myristate-13-Acetate], the “mouse skin cancer promotion” value (mouse skin; Chemsyn product brochure) is given as “extremely potent mouse skin cancer promoter”, the tumor promotion (mouse skin; Merck Index, 11th Edition) is given as “co-carcinogen or tumor promoter” and the “harm on oral ingestion” value [1] is given as “harmful if ingested orally”. The irritant to skin [1] was “highly potent irritant to skin”, the “tumor cell differentiation (pathological studies)” value ([2]; after TPA treatment) was “the tumor cells were differentiated” and the “inhibition of tumor growth” value ([2]; i.p. 50 μg/kg daily for 7 days) was 41.7%. For the same compound, the “inhibition of tumor growth” value ([2]; i.p. 100 μg/kg daily for 7 days) was 54.8%, the “inhibition of tumor growth” value ([2]; i.p. 200 μg/kg daily for 7 days) was 30.4% and the “inhibition of tumor growth” value ([2]; locally at tumor site, 50 μg/kg daily for 7 days) was 35.5%. For the same compound, the “inhibition of tumor growth” value ([2]; locally at tumor site, 100 μg/kg daily for 7 days) was 49.3%, the “inhibition of tumor growth” value ([2]; locally at tumor site, 200 μg/kg daily for 7 days) was 59.2% and the “rate of inhibition of tumor growth” value (B16 tumor cells; i.p. 50 μg/kg/d for 8 days) was 40.0%. For the same compound, the “rate of inhibition of tumor growth” value (B16 tumor cells; i.p. 100 μg/kg/d for 8 days) was 59.4%, the “rate of inhibition of tumor growth” value (B16 tumor cells; i.p. 200 μg/kg/d for 8 days) was 32.1% and the “Bone marrow myeloblast+promyelocyte after TPA treatment” value [3, 6] was 17%. The “Hb after TPA treatment” value [3, 6] was 66 g/L, the “WBC after TPA treatment” value [3, 7] was 1.9e+09 L⁻¹ and the treatment termination [3, 7] was “Due to severe anemia, the TPA treatment was terminated”. The “Bone marrow Myeloblast and promyelocyte, early in TPA treatment” value ([3]; subject 10, CML, 0.25 mg TPA once) was 9%, the “myeloblast, promyelocyte, myelocyte” value ([3]; subject 10, CML, TPA 0.25 mg once, fifth day) was “completely disappeared” and the mitogenic activity (cell cultures) was “powerful mitogen in cell cultures”. For the same compound, the “chemical change on storage” value ([4]; cold temperature, up to one year) was “no chemical change”, the “chemical change on storage” value ([4]; room temperature, up to two months) was “no chemical change” and the differentiation to macrophages (HL-60 cells; after 4-6 days) was “the majority of the cells were induced to differentiate to macrophages in a dose-dependent manner”. The “cell aggregation and attachment” value (HL-60 cells; after 3 hours) was “cell aggregation and attachment to the dish were observed”, the “proliferation of HL-60 cells” value (HL-60 cells; after 3 hours) was “stopped proliferating” and the morphological changes (HL-60 cells; after 48 h) was “there were morphological changes”. For the same compound, the “differentiation to nondividing macrophage-like cells” value ([5]; Weinberg, Science 213:655-657, 1981) was “causes differentiation of cells of the human leukemia cell line HL-60 to nondividing macrophage-like cells” and the induction of differentiation ([5]; stable human promyelocytic leukemic cell line HL-60) was “induces differentiation”.
